Source: paper PMC9329436, “Optimization of the 4-anilinoquin(az)oline scaffold as epidermal growth factor receptor (EGFR) inhibitors for chordoma utilizing a toxicology profiling assay platform” (Scientific Reports, 2022)
Where two headings read alike, the source gives them in different places.

What was measured:
Assay type in all cases: biochemical
[1] = biological target: 320 wild-type protein kinases (Homo sapiens, UniProt O00506); details: kinase STK25, singlicate
Source text: (§1) Table S4. Profiling of two compounds at two concentrations against 320 wild-type protein kinases; singlicate measurement; Residual activities (% of control).

[2] = biological target: 320 wild-type protein kinases (Homo sapiens, UniProt O60674); details: singlicate
Source text: as §1

[3] = biological target: 320 wild-type protein kinases (Homo sapiens, UniProt O96013); details: singlicate
Source text: as §1

[4] = biological target: 320 wild-type protein kinases (Homo sapiens, UniProt P06493); details: singlicate
Chain of 320 wild-type protein kinases (Homo sapiens, UniProt P06493) (P06493 whole entry): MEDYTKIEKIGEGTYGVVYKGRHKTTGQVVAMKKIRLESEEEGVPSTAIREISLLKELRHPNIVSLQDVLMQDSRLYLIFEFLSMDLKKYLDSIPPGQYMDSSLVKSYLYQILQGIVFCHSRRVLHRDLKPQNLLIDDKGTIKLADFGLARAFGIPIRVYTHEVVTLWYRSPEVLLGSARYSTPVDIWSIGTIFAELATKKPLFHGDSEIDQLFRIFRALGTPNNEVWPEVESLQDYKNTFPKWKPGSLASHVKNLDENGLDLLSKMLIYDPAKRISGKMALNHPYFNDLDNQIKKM
Source text: as §1

[5] = biological target: 320 wild-type protein kinases (Homo sapiens, UniProt P30291); details: kinase WEE1, singlicate
Source text: as §1

[6] = biological target: 320 wild-type protein kinases (Homo sapiens, UniProt P49137); details: singlicate
Source text: as §1

[7] = biological target: 320 wild-type protein kinases (Homo sapiens, UniProt P53355); details: singlicate
Chain of 320 wild-type protein kinases (Homo sapiens, UniProt P53355) (P53355 whole entry): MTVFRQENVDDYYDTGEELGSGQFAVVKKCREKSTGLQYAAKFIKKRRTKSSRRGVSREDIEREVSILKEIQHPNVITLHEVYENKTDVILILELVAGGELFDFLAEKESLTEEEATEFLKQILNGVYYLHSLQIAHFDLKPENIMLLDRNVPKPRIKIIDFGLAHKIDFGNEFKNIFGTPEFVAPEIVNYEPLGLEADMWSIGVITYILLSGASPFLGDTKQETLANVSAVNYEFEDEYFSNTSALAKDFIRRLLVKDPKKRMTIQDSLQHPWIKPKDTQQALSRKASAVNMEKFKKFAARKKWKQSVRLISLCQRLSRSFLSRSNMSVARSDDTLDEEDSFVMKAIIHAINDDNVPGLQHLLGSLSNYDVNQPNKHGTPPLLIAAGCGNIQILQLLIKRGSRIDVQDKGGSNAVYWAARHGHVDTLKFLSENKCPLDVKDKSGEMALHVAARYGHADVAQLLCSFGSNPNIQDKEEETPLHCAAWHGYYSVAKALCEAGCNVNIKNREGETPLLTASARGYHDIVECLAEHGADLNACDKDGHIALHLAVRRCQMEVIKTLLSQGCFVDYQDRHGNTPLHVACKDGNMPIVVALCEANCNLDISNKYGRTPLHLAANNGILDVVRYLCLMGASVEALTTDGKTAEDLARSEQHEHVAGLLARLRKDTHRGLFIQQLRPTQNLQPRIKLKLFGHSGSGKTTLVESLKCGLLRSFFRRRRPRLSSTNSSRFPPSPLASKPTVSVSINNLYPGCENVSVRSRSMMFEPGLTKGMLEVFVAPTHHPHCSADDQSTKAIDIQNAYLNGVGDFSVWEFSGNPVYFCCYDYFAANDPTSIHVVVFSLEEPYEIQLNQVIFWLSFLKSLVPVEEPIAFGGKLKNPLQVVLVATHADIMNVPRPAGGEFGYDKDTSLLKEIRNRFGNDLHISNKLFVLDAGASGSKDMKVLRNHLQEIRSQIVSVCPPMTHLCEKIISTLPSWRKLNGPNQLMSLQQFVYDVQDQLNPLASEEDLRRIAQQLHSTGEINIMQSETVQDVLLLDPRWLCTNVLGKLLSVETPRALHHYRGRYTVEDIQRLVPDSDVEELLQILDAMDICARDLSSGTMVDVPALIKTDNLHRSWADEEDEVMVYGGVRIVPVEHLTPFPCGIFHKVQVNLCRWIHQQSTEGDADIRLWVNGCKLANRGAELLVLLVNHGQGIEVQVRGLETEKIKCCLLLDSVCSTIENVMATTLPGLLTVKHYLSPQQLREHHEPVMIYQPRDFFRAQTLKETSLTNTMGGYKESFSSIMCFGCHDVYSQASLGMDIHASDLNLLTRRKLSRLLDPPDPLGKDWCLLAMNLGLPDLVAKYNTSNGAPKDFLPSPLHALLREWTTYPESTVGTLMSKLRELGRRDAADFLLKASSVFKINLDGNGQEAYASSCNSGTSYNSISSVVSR
Source text: as §1

[8] = biological target: 320 wild-type protein kinases (Homo sapiens, UniProt Q13164); details: singlicate
Chain of 320 wild-type protein kinases (Homo sapiens, UniProt Q13164) (Q13164 whole entry): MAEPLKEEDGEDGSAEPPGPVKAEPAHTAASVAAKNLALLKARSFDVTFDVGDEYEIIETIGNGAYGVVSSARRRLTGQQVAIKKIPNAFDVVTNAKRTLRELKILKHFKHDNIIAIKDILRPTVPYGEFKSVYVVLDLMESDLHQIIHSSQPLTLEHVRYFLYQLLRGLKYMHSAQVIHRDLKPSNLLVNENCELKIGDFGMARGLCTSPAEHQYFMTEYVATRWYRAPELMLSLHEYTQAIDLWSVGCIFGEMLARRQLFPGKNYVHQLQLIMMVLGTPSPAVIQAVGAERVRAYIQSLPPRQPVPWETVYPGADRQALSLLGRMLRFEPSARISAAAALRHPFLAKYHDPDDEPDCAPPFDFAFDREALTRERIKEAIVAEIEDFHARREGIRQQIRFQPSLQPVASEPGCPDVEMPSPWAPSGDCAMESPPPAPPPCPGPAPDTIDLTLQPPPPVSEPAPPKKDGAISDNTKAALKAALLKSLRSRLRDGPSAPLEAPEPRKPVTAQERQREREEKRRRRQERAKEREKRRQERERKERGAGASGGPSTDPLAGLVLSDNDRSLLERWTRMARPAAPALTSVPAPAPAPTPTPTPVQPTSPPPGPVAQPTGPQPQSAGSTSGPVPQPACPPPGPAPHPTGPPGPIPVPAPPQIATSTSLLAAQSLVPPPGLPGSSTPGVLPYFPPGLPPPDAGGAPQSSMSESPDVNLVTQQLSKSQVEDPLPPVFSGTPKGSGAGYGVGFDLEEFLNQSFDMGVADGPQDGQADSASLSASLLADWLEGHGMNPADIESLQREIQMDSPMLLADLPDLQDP
Source text: as §1

[9] = biological target: 320 wild-type protein kinases (Homo sapiens, UniProt Q13554); details: CAMK2B, singlicate
Source text: as §1

[10] = biological target: 320 wild-type protein kinases (Homo sapiens, UniProt Q13705); details: ACV-R2B, singlicate
Chain of 320 wild-type protein kinases (Homo sapiens, UniProt Q13705) (Q13705 19-512): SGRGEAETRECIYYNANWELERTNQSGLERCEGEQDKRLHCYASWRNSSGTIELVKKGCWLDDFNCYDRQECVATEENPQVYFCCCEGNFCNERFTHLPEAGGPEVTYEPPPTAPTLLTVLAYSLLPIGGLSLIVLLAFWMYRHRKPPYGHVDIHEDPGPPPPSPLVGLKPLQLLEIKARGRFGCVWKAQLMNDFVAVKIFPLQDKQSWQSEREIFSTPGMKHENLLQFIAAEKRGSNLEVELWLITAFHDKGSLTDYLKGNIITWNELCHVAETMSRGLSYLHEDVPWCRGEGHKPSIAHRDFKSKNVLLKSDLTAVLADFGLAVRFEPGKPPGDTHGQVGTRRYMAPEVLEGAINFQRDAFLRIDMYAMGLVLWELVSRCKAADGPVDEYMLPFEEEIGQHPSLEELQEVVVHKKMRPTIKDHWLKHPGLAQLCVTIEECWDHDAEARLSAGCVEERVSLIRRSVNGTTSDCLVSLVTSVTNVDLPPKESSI
Source text: as §1

[11] = biological target: T1, 320 wild-type protein kinases (Homo sapiens, UniProt Q13976); details: kinase PRKG1, singlicate
T1 sequence (Q13976 1-671): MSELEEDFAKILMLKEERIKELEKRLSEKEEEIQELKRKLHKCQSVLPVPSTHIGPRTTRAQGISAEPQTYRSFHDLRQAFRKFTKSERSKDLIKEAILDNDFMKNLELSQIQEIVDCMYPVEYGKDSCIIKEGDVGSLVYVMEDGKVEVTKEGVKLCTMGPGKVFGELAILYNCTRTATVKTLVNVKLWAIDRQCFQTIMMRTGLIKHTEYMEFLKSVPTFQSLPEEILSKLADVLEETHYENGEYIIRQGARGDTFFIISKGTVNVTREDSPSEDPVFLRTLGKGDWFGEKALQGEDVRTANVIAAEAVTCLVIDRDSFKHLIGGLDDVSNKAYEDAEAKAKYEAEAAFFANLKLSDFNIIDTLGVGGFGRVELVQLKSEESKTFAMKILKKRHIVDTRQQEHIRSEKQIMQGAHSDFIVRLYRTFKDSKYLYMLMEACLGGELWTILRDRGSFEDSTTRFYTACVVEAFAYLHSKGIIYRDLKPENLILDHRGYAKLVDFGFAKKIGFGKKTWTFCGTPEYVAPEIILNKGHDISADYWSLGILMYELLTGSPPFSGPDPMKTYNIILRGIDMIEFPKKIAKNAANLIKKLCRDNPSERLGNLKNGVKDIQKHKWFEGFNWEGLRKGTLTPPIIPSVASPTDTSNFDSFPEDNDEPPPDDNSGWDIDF
Source text: as §1

[12] = biological target: 320 wild-type protein kinases (Homo sapiens, UniProt Q86V86); details: singlicate
Source text: as §1

[13] = biological target: T2, 320 wild-type protein kinases (Homo sapiens, UniProt Q8TDC3); details: singlicate
T2 sequence (Q8TDC3 1-778): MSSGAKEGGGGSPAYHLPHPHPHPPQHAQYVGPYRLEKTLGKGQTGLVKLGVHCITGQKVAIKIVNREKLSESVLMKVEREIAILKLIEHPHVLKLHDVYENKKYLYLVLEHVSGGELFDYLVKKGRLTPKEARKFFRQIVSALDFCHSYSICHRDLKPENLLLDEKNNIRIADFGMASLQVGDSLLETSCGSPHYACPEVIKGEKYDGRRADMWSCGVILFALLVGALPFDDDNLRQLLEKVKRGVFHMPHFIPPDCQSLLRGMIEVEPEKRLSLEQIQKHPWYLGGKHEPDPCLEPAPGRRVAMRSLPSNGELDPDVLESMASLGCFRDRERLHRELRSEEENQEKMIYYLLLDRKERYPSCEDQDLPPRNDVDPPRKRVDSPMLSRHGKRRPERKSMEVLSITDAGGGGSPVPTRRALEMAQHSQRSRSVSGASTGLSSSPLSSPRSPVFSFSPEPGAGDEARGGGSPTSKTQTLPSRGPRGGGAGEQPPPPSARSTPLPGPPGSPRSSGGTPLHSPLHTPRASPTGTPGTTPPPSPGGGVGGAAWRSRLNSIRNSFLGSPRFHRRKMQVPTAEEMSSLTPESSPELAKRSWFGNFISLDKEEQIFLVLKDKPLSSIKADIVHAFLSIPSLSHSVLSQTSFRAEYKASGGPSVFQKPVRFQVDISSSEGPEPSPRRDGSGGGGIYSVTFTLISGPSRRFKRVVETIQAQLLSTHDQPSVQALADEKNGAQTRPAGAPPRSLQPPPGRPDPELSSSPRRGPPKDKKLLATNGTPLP
Source text: as §1

[14] = biological target: 320 wild-type protein kinases (Homo sapiens, UniProt Q9H1R3); details: singlicate
Chain of 320 wild-type protein kinases (Homo sapiens, UniProt Q9H1R3) (Q9H1R3 whole entry): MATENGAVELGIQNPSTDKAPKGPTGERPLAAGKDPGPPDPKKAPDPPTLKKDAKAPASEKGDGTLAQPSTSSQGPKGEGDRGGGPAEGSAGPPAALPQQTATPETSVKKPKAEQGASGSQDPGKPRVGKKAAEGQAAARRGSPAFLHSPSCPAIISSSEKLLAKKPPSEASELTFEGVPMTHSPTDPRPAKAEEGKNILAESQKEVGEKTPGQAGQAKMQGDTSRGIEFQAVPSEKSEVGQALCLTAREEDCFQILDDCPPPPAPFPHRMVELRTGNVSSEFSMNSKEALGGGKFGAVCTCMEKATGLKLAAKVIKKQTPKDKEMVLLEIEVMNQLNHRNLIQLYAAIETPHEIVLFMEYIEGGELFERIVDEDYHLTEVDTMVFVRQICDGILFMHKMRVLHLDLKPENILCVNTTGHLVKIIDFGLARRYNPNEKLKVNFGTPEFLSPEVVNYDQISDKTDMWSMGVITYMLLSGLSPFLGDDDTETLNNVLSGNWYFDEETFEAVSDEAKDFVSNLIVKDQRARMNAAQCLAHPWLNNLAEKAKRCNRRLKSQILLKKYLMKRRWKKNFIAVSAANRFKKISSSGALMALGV
Source text: as §1

[15] = biological target: 320 wild-type protein kinases (Homo sapiens, UniProt Q9H4B4); details: singlicate
Chain of 320 wild-type protein kinases (Homo sapiens, UniProt Q9H4B4) (Q9H4B4 whole entry): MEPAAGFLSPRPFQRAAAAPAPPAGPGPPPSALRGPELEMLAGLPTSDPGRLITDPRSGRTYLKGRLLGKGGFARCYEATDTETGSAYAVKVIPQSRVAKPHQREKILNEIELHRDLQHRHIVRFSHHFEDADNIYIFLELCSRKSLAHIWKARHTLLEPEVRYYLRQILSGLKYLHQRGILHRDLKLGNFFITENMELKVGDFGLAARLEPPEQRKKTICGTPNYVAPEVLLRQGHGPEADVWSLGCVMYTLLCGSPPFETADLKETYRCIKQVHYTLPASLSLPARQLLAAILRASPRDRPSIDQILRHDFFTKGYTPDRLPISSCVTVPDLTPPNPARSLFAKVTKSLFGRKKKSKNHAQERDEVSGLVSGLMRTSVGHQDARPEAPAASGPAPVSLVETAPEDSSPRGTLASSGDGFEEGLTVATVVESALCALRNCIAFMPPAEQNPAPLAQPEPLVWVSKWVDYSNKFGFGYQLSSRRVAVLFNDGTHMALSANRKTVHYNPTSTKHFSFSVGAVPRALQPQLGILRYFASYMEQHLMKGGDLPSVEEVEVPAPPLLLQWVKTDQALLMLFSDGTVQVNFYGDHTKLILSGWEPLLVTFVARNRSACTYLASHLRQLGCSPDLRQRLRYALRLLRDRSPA
Source text: as §1

Chain of 320 wild-type protein kinases (Homo sapiens, UniProt O00506) (O00506 whole entry): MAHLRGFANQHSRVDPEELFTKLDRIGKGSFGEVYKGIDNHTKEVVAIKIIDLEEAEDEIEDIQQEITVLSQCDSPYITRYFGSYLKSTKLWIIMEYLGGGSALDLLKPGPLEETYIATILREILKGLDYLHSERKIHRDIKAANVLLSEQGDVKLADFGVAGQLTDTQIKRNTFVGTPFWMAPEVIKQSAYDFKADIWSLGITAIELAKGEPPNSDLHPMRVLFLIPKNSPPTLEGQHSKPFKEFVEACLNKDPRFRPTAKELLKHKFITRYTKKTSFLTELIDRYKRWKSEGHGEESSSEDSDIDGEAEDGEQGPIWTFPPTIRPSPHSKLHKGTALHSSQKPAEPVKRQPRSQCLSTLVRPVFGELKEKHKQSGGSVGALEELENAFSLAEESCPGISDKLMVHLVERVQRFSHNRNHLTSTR

Structure (SMILES)	Residual activity, STK25 ([1]; assay conc. 1.0E-06 M)	Residual activity, STK25 ([1]; assay conc. 1.0E-07 M)	Residual activity ([2]; JAK2, 1.0E-06 M)	Residual activity ([2]; JAK2, 1.0E-07 M)	Residual activity ([3]; PAK4, 1.0E-06 M)	Residual activity ([3]; PAK4, 1.0E-07 M)	Residual activity ([4]; CDK1/CycA2, 1.0E-06 M)	Residual activity ([4]; CDK1/CycA2, 1.0E-07 M)	Residual activity ([4]; CDK1/CycB1, 1.0E-06 M)	Residual activity ([4]; CDK1/CycB1, 1.0E-07 M)	Residual activity ([4]; CDK1/CycE1, 1.0E-06 M)	Residual activity ([4]; CDK1/CycE1, 1.0E-07 M)	Residual activity, WEE1 ([5]; assay conc. 1.0E-06 M)	Residual activity, WEE1 ([5]; assay conc. 1.0E-07 M)	Residual activity ([7]; DAPK1, 1.0E-06 M)	Residual activity ([7]; DAPK1, 1.0E-07 M)	Residual activity ([8]; ERK5, 1.0E-06 M)	Residual activity ([8]; ERK5, 1.0E-07 M)	Residual activity ([9]; 1.0E-06 M)	Residual activity ([9]; 1.0E-07 M)	further results
C#Cc1cc(Nc2ncnc3cc(I)ccc23)ccc1Cl [Compound 41]	100 % of control	95 % of control	98 % of control	105 % of control	82 % of control	103 % of control	77 % of control	91 % of control	79 % of control	84 % of control	101 % of control	116 % of control	87 % of control	112 % of control	112 % of control	125 % of control	74 % of control	92 % of control	86 % of control	84 % of control	Residual activity ([6]; MAPKAPK2, 1.0E-07 M): 139 % of control; Residual activity ([10]; 1.0E-06 M): 84 % of control; Residual activity ([10]; 1.0E-07 M): 91 % of control; Residual activity, PRKG1 ([11]; assay conc. 1.0E-06 M): 72 % of control; Residual activity, PRKG1 ([11]; assay conc. 1.0E-07 M): 88 % of control; Residual activity ([12]; PIM3, 1.0E-06 M): 83 % of control; Residual activity ([12]; PIM3, 1.0E-07 M): 81 % of control; Residual activity ([13]; BRSK1, 1.0E-06 M): 91 % of control; Residual activity ([13]; BRSK1, 1.0E-07 M): 100 % of control; Residual activity ([14]; MYLK2, 1.0E-06 M): 75 % of control; Residual activity ([14]; MYLK2, 1.0E-07 M): 90 % of control; Residual activity ([15]; PLK3, 1.0E-06 M): 102 % of control; Residual activity ([15]; PLK3, 1.0E-07 M): 109 % of control
C#Cc1cc(Nc2ncnc3cc(OC)c(OC)cc23)ccc1Cl [Compound 45]	104 % of control	111 % of control	92 % of control	102 % of control	95 % of control	103 % of control	83 % of control	83 % of control	78 % of control	89 % of control	91 % of control	97 % of control	76 % of control	109 % of control	116 % of control	126 % of control	85 % of control	96 % of control	103 % of control	81 % of control	Residual activity ([6]; MAPKAPK2, 1.0E-06 M): 138 % of control; Residual activity ([10]; 1.0E-06 M): 85 % of control; Residual activity ([10]; 1.0E-07 M): 83 % of control; Residual activity, PRKG1 ([11]; assay conc. 1.0E-06 M): 101 % of control; Residual activity, PRKG1 ([11]; assay conc. 1.0E-07 M): 106 % of control; Residual activity ([12]; PIM3, 1.0E-06 M): 53 % of control; Residual activity ([12]; PIM3, 1.0E-07 M): 81 % of control; Residual activity ([13]; BRSK1, 1.0E-06 M): 97 % of control; Residual activity ([13]; BRSK1, 1.0E-07 M): 89 % of control; Residual activity ([14]; MYLK2, 1.0E-06 M): 70 % of control; Residual activity ([14]; MYLK2, 1.0E-07 M): 89 % of control; Residual activity ([15]; PLK3, 1.0E-06 M): 98 % of control; Residual activity ([15]; PLK3, 1.0E-07 M): 103 % of control
